# Experimental data reported in patent US20190031618A1, “BENZIMIDAZOLE DERIVATIVES USEFUL AS CB-1 INVERSE AGONISTS” (Janssen Pharmaceutica NV, priority 2015, published 2019).
# Like-named read-outs stand apart in the source and are kept apart here.
# Columns and labels:
# Assay type in all cases: in vivo
# DIO mice [1] = assay: Chronic DIO Mouse: food intake, body weight, plasma insulin; conditions: chronic DIO mouse, (Std Err)
# Method: Male 14-20-week old diet-induced obese mice are ordered from Taconic. Mice were started on a 60% fat diet (D12492, Research Diets, New Brunswick, N.J.) at 6 weeks of age. Mice are single-housed.
# (§1) DIO mice received vehicle, test compound (@ 1, 3, 10, and 30 mg/kg) daily for 26 days. At the end of the experiment, the mice were euthanized and blood and tissues were collected.
# Body weight and food weight (food intake) were monitored daily for days 1-5 and twice weekly thereafter.
# (§2) Blood glucose was measured from the tail vein with a Lifescan glucometer. Plasma insulin was measured with an ELISA or HTRF kit (Cisbio). Plasma parameters were measured with an Olympus clinical chemistry analyzer.
# DIO mice [2] = assay: Chronic DIO Mouse: oral glucose tolerance test; conditions: for Oral Glucose Tolerance Test Blood Glucose AUC: day 23
# Method: as §1
# (§3) An insulin tolerance test (0.7 U/kg Humulin, ip) was performed on day 21 after a 4 hour food removal. Blood glucose was measured at 0, 15, 30, 60 and 120 minutes after insulin. After an overnight fast, an oral glucose tolerance test (2 g/kg glucose) was performed on day 23. Blood glucose was measured at 0, 30, 60 and 120 minutes after glucose challenge.
# as §2
# DIO mice [3] = assay: Chronic DIO Mouse: insulin tolerance test; conditions: for Insulin Tolerance Test Blood Glucose AUC (Std Err): day 21
# Method: as §1, §3, §2
# [4] = Chronic DIO Mouse: plasma and brain concentrations; conditions: oral, DIO mice, 2 Hours Post Dose
# Method: as §1
structure (smiles),measurement,setting,value
O=C(O)c1cccc(CN2CCC(n3c(C4CC4)nc4ccc(C(c5ccc(Cl)cc5)c5ccc(Cl)cc5)cc43)CC2)c1 [Example 148],Mean Daily Food Intake,"DIO mice [1]; 10 mg/kg daily, Day 4",1.7 (0.2) Grams
same,Mean Daily Food Intake,"DIO mice [1]; 10 mg/kg daily, Day 5",1.8 (0.2) Grams
same,Mean Daily Food Intake,"DIO mice [1]; 10 mg/kg daily, Day 8",1.7 (0.1) Grams
same,Mean Daily Food Intake,"DIO mice [1]; 10 mg/kg daily, Day 11",2.0 (0.1) Grams
same,Mean Daily Food Intake,"DIO mice [1]; 10 mg/kg daily, Day 15",2.3 (0.1) Grams
same,Mean Daily Food Intake,"DIO mice [1]; 10 mg/kg daily, Day 18",2.3 (0.1) Grams
same,Mean Daily Food Intake,"DIO mice [1]; 10 mg/kg daily, Day 24",2.2 (0.2) Grams
same,Mean Daily Food Intake,"DIO mice [1]; 30 mg/kg daily, Day 2",0.1 (0.1) Grams
same,Mean Daily Food Intake,"DIO mice [1]; 30 mg/kg daily, Day 3",0.5 (0.1) Grams
same,Mean Daily Food Intake,"DIO mice [1]; 30 mg/kg daily, Day 4",0.7 (0.1) Grams
same,Mean Daily Food Intake,"DIO mice [1]; 30 mg/kg daily, Day 5",1.0 (0.2) Grams
same,Mean Daily Food Intake,"DIO mice [1]; 30 mg/kg daily, Day 8",1.3 (0.2) Grams
same,Mean Daily Food Intake,"DIO mice [1]; 30 mg/kg daily, Day 11",1.7 (0.2) Grams
same,Mean Daily Food Intake,"DIO mice [1]; 30 mg/kg daily, Day 15",2.3 (0.1) Grams
same,Mean Daily Food Intake,"DIO mice [1]; 30 mg/kg daily, Day 18",1.8 (0.2) Grams
same,Mean Daily Food Intake,"DIO mice [1]; 30 mg/kg daily, Day 24",2.4 (0.1) Grams
same,Oral Glucose Tolerance Test Blood Glucose AUC,DIO mice [2]; 1 mg/kg daily,19362 mg·min/dL
same,Oral Glucose Tolerance Test Mean Blood Glucose,"DIO mice [2]; 1 mg/kg daily, day 23, 0 min after glucose",139.90 mg/dL
same,Oral Glucose Tolerance Test Mean Blood Glucose,"DIO mice [2]; 1 mg/kg daily, day 23, 30 min after glucose",179.2 mg/dL
same,Oral Glucose Tolerance Test Mean Blood Glucose,"DIO mice [2]; 1 mg/kg daily, day 23, 60 min after glucose",168.5 mg/dL
same,Oral Glucose Tolerance Test Mean Blood Glucose,"DIO mice [2]; 1 mg/kg daily, day 23, 120 min after glucose",143.5 mg/dL
same,Oral Glucose Tolerance Test Blood Glucose AUC,DIO mice [2]; 3 mg/kg daily,19705 mg·min/dL
same,Oral Glucose Tolerance Test Mean Blood Glucose,"DIO mice [2]; 3 mg/kg daily, day 23, 0 min after glucose",154.89 mg/dL
same,Oral Glucose Tolerance Test Mean Blood Glucose,"DIO mice [2]; 3 mg/kg daily, day 23, 30 min after glucose",153.11 mg/dL
same,Oral Glucose Tolerance Test Mean Blood Glucose,"DIO mice [2]; 3 mg/kg daily, day 23, 60 min after glucose",183.89 mg/dL
same,Oral Glucose Tolerance Test Mean Blood Glucose,"DIO mice [2]; 3 mg/kg daily, day 23, 120 min after glucose",150.44 mg/dL
same,Oral Glucose Tolerance Test Blood Glucose AUC,DIO mice [2]; 10 mg/kg daily,19740 mg·min/dL
same,Oral Glucose Tolerance Test Mean Blood Glucose,"DIO mice [2]; 10 mg/kg daily, day 23, 0 min after glucose",141.60 mg/dL
same,Oral Glucose Tolerance Test Mean Blood Glucose,"DIO mice [2]; 10 mg/kg daily, day 23, 30 min after glucose",190.1 mg/dL
same,Oral Glucose Tolerance Test Mean Blood Glucose,"DIO mice [2]; 10 mg/kg daily, day 23, 60 min after glucose",176.2 mg/dL
same,Oral Glucose Tolerance Test Mean Blood Glucose,"DIO mice [2]; 10 mg/kg daily, day 23, 120 min after glucose",132.8 mg/dL
same,Oral Glucose Tolerance Test Blood Glucose AUC,DIO mice [2]; 30 mg/kg daily,19276.5 mg·min/dL
same,Oral Glucose Tolerance Test Mean Blood Glucose,"DIO mice [2]; 30 mg/kg daily, day 23, 0 min after glucose",125.30 mg/dL
same,Oral Glucose Tolerance Test Mean Blood Glucose,"DIO mice [2]; 30 mg/kg daily, day 23, 30 min after glucose",184.5 mg/dL
same,Oral Glucose Tolerance Test Mean Blood Glucose,"DIO mice [2]; 30 mg/kg daily, day 23, 60 min after glucose",179 mg/dL
same,Oral Glucose Tolerance Test Mean Blood Glucose,"DIO mice [2]; 30 mg/kg daily, day 23, 120 min after glucose",126.9 mg/dL
same,Insulin Tolerance Test Blood Glucose AUC (Std Err),DIO mice [3]; 1 mg/kg daily,19606.5 mg·min/dL
same,Insulin Tolerance Test Mean Blood Glucose (Std Err),"DIO mice [3]; 1 mg/kg daily, day 21, 0 min after insulin",194.8 mg/dL
same,Insulin Tolerance Test Mean Blood Glucose (Std Err),"DIO mice [3]; 1 mg/kg daily, day 21, 15 min after insulin",193.3 mg/dL
same,Insulin Tolerance Test Mean Blood Glucose (Std Err),"DIO mice [3]; 1 mg/kg daily, day 21, 30 min after insulin",155 mg/dL
same,Insulin Tolerance Test Mean Blood Glucose (Std Err),"DIO mice [3]; 1 mg/kg daily, day 21, 60 min after insulin",161.3 mg/dL
same,Insulin Tolerance Test Mean Blood Glucose (Std Err),"DIO mice [3]; 1 mg/kg daily, day 21, 120 min after insulin",150 mg/dL
same,Insulin Tolerance Test Blood Glucose AUC (Std Err),DIO mice [3]; 3 mg/kg daily,17812.5 (1054.85) mg/dL * min
same,Insulin Tolerance Test Mean Blood Glucose (Std Err),"DIO mice [3]; 3 mg/kg daily, day 21, 0 min after insulin",185.9 (6.57) mg/dL
same,Insulin Tolerance Test Mean Blood Glucose (Std Err),"DIO mice [3]; 3 mg/kg daily, day 21, 15 min after insulin",160.9 (7.24) mg/dL
same,Insulin Tolerance Test Mean Blood Glucose (Std Err),"DIO mice [3]; 3 mg/kg daily, day 21, 30 min after insulin",138.9 (9.10) mg/dL
same,Insulin Tolerance Test Mean Blood Glucose (Std Err),"DIO mice [3]; 3 mg/kg daily, day 21, 60 min after insulin",150.9 (11.66) mg/dL
same,Insulin Tolerance Test Mean Blood Glucose (Std Err),"DIO mice [3]; 3 mg/kg daily, day 21, 120 min after insulin",136.3 (9.51) mg/dL
same,Insulin Tolerance Test Blood Glucose AUC (Std Err),DIO mice [3]; 10 mg/kg daily,17930.25 (556.44) mg/dL * min
same,Insulin Tolerance Test Mean Blood Glucose (Std Err),"DIO mice [3]; 10 mg/kg daily, day 21, 0 min after insulin",168.8 (7.13) mg/dL
same,Insulin Tolerance Test Mean Blood Glucose (Std Err),"DIO mice [3]; 10 mg/kg daily, day 21, 15 min after insulin",172.6 (9.66) mg/dL
same,Insulin Tolerance Test Mean Blood Glucose (Std Err),"DIO mice [3]; 10 mg/kg daily, day 21, 30 min after insulin",139.1 (7.03) mg/dL
same,Insulin Tolerance Test Mean Blood Glucose (Std Err),"DIO mice [3]; 10 mg/kg daily, day 21, 60 min after insulin",146.7 (5.80) mg/dL
same,Insulin Tolerance Test Mean Blood Glucose (Std Err),"DIO mice [3]; 10 mg/kg daily, day 21, 120 min after insulin",144.8 (5.86) mg/dL
same,Insulin Tolerance Test Blood Glucose AUC (Std Err),DIO mice [3]; 30 mg/kg daily,14575.5 mg·min/dL
same,Insulin Tolerance Test Mean Blood Glucose (Std Err),"DIO mice [3]; 30 mg/kg daily, day 21, 0 min after insulin",143 mg/dL
same,Insulin Tolerance Test Mean Blood Glucose (Std Err),"DIO mice [3]; 30 mg/kg daily, day 21, 15 min after insulin",147.6 mg/dL
same,Insulin Tolerance Test Mean Blood Glucose (Std Err),"DIO mice [3]; 30 mg/kg daily, day 21, 30 min after insulin",119.8 mg/dL
same,Insulin Tolerance Test Mean Blood Glucose (Std Err),"DIO mice [3]; 30 mg/kg daily, day 21, 60 min after insulin",121.3 mg/dL
same,Insulin Tolerance Test Mean Blood Glucose (Std Err),"DIO mice [3]; 30 mg/kg daily, day 21, 120 min after insulin",104.5 mg/dL
same,concentration at 2 h,"[4]; brain, 1 mg/kg daily, Day 25, read-out: Brain Concentration (Std Dev)",18.2 ng/g
same,concentration at 2 h,"[4]; brain, 3 mg/kg daily, Day 25, read-out: Brain Concentration (Std Dev)",29.9 ng/g
same,concentration at 2 h,"[4]; brain, 10 mg/kg daily, Day 25, read-out: Brain Concentration (Std Dev)",42 ng/g
same,concentration at 2 h,"[4]; brain, 30 mg/kg daily, Day 25, read-out: Brain Concentration (Std Dev)",73.5 ng/g
same,concentration at 2 h,"[4]; plasma, 1 mg/kg daily, Day 25, read-out: Plasma Concentration (Std Dev)",288 ng/mL
same,concentration at 2 h,"[4]; plasma, 3 mg/kg daily, Day 25, read-out: Plasma Concentration (Std Dev)",1350 ng/mL
same,concentration at 2 h,"[4]; plasma, 10 mg/kg daily, Day 25, read-out: Plasma Concentration (Std Dev)",3430 ng/mL
same,concentration at 2 h,"[4]; plasma, 30 mg/kg daily, Day 25, read-out: Plasma Concentration (Std Dev)",15200 ng/mL
